Common to all, as to assay type: functional
Holding throughout (conditions): read-out: GI

The subject of one experiment is UO-31. Briefly: Cytotoxicity against human UO-31 cells assessed as growth inhibition at 10 uM after 48 hrs by sulforhodamine B assay. (Sulforhodamine B stains cellular protein and so reports cell mass.)
Another experiment has as its system MCF7. Briefly: Cytotoxicity against human MCF7 cells assessed as growth inhibition at 10 uM after 48 hrs by sulforhodamine B assay.
A further experiment has as its system UACC-257. Description: Cytotoxicity against human UACC-257 cells assessed as growth inhibition at 10 uM after 48 hrs by sulforhodamine B assay.
Another experiment deals with CCRF-CEM. Briefly: Cytotoxicity against human CCRF-CEM cells assessed as growth inhibition at 10 uM after 48 hrs by sulforhodamine B assay.
The next experiment deals with Malme-3M. Briefly: Cytotoxicity against human MALME-3M cells assessed as growth inhibition at 10 uM after 48 hrs by sulforhodamine B assay.
The next experiment relates to BT-549. Description: Cytotoxicity against human BT-549 cells assessed as growth inhibition at 10 uM after 48 hrs by sulforhodamine B assay.
The subject of another experiment is SF-295. Briefly: Cytotoxicity against human SF-295 cells assessed as growth inhibition at 10 uM after 48 hrs by sulforhodamine B assay.
In the next experiment the test system is SN12C. Description: Cytotoxicity against human SN12C cells assessed as growth inhibition at 10 uM after 48 hrs by sulforhodamine B assay.
The subject of another experiment is A549. Description: Cytotoxicity against human A549 cells assessed as growth inhibition at 10 uM after 48 hrs by sulforhodamine B assay.
A further experiment concerns SF-539. Description: Cytotoxicity against human SF-539 cells assessed as growth inhibition at 10 uM after 48 hrs by sulforhodamine B assay.
The test system of a further experiment is MDA-MB-231. Briefly: Cytotoxicity against human MDA-MB-231 cells assessed as growth inhibition at 10 uM after 48 hrs by sulforhodamine B assay.
A further experiment deals with NCI-H23. Description: Cytotoxicity against human NCI-H23 cells assessed as growth inhibition at 10 uM after 48 hrs by sulforhodamine B assay.
The subject of a further experiment is T47D. Briefly: Cytotoxicity against human T47D cells assessed as growth inhibition at 10 uM after 48 hrs by sulforhodamine B assay.
The test system of the next experiment is HOP-62. Description: Cytotoxicity against human HOP-62 cells assessed as growth inhibition at 10 uM after 48 hrs by sulforhodamine B assay.
The next experiment relates to HCT-116. Briefly: Cytotoxicity against human HCT-116 cells assessed as growth inhibition at 10 uM after 48 hrs by sulforhodamine B assay.
A further experiment deals with ACHN. Briefly: Cytotoxicity against human ACHN cells assessed as growth inhibition at 10 uM after 48 hrs by sulforhodamine B assay.
The next experiment has as its system 786-0. Description: Cytotoxicity against human 786-0 cells assessed as growth inhibition at 10 uM after 48 hrs by sulforhodamine B assay.
Another experiment deals with SNB-19. Description: Cytotoxicity against human SNB-19 cells assessed as growth inhibition at 10 uM after 48 hrs by sulforhodamine B assay.
The next experiment has as its system SF-268. Description: Cytotoxicity against human SF-268 cells assessed as growth inhibition at 10 uM after 48 hrs by sulforhodamine B assay.
Another experiment has as its system HOP-92. Briefly: Cytotoxicity against human HOP-92 cells assessed as growth inhibition at 10 uM after 48 hrs by sulforhodamine B assay.
The test system of a further experiment is SR. Briefly: Cytotoxicity against human SR cells assessed as growth inhibition at 10 uM after 48 hrs by sulforhodamine B assay.
A further experiment relates to CAKI-1. Briefly: Cytotoxicity against human CAKI-1 cells assessed as growth inhibition at 10 uM after 48 hrs by sulforhodamine B assay.
The subject of another experiment is U-251. Description: Cytotoxicity against human U-251 cells assessed as growth inhibition at 10 uM after 48 hrs by sulforhodamine B assay.
The next experiment relates to SNB-75. Description: Cytotoxicity against human SNB-75 cells assessed as growth inhibition at 10 uM after 48 hrs by sulforhodamine B assay.
The next experiment concerns NCI/ADR-RES. Briefly: Cytotoxicity against human NCI-ADR-RES cells assessed as growth inhibition at 10 uM after 48 hrs by sulforhodamine B assay.
The subject of the next experiment is LOX IMVI. Description: Cytotoxicity against human LOX IMVI cells assessed as growth inhibition at 10 uM after 48 hrs by sulforhodamine B assay.
In a further experiment the test system is MDA-MB-468. Briefly: Cytotoxicity against human MDA-MB-468 cells assessed as growth inhibition at 10 uM after 48 hrs by sulforhodamine B assay.
In another experiment the test system is OVCAR-8. Description: Cytotoxicity against human OVCAR8 cells assessed as growth inhibition at 10 uM after 48 hrs by sulforhodamine B assay.
The subject of another experiment is HL-60(TB). Briefly: Cytotoxicity against human HL-60(TB) cells assessed as growth inhibition at 10 uM after 48 hrs by sulforhodamine B assay.
A further experiment concerns MOLT-4. Briefly: Cytotoxicity against human MOLT-4 cells assessed as growth inhibition at 10 uM after 48 hrs by sulforhodamine B assay.
In another experiment the test system is K562. Briefly: Cytotoxicity against human K562 cells assessed as growth inhibition at 10 uM after 48 hrs by sulforhodamine B assay.
The subject of another experiment is UACC-62. Briefly: Cytotoxicity against human UACC-62 cells assessed as growth inhibition at 10 uM after 48 hrs by sulforhodamine B assay.
Experiment [1] is described as follows: Cytotoxicity against human Hs 578T cells assessed as growth inhibition at 10 uM after 48 hrs by sulforhodamine B assay.
Another experiment deals with SK-MEL-2. Briefly: Cytotoxicity against human SK-MEL-2 cells assessed as growth inhibition at 10 uM after 48 hrs by sulforhodamine B assay.
The subject of a further experiment is A498. Description: Cytotoxicity against human A498 cells assessed as growth inhibition at 10 uM after 48 hrs by sulforhodamine B assay.
The next experiment relates to RXF 393. Briefly: Cytotoxicity against human RXF 393 cells assessed as growth inhibition at 10 uM after 48 hrs by sulforhodamine B assay.
A further experiment has as its system NCI-H522. Description: Cytotoxicity against human NCI-H522 cells assessed as growth inhibition at 10 uM after 48 hrs by sulforhodamine B assay.
For the next experiment, the system named is SK-OV-3. Briefly: Cytotoxicity against human SK-OV-3 cells assessed as growth inhibition at 10 uM after 48 hrs by sulforhodamine B assay.

Structures are written as SMILES.

Take `O=S(=O)(Oc1ccc(/C=N/NC(=S)Nc2ccccc2)cc1)C(F)(F)C(F)(F)C(F)(F)C(F)(F)F`: the inhibition of growth at 10 µM was found to be 11.8% in the experiment on UO-31, 14.2% in the experiment with MCF7 and 14.3% in the experiment with UACC-257.
`O=S(=O)(Oc1ccc(-c2nnc(Nc3ccccc3)s2)cc1)C(F)(F)C(F)(F)C(F)(F)C(F)(F)C(F)(F)C(F)(F)C(F)(F)C(F)(F)F`: the inhibition of growth at 10 µM with UO-31 is 19.4%; with CCRF-CEM, 12.1%; in the experiment on Malme-3M, 11.7%; with BT-549 it was 12.9%.
Regarding `COC(=O)/C=C1\S/C(=N\N=C\c2ccc(C(F)(F)F)cc2)N(c2ccccc2)C1=O`, the inhibition of growth at 10 µM in the experiment with UO-31 was determined as 18.3%; in the experiment with SF-295, 16.6%; with SN12C, 24.1%; in the experiment with A549, 12.4%; in the experiment with SF-539, 21%; in the experiment on MDA-MB-231, 19.8%. Besides, the inhibition of growth at 10 µM in the experiment with NCI-H23 was determined as 10.1%; in the experiment on T47D, 20.4%; in the experiment on HOP-62, 36.6%; with HCT-116 it was 32.4%; in the experiment with MCF7, 25.2%; with ACHN it was 40.1%. Also, the inhibition of growth at 10 µM stood at 11.1% in the experiment on 786-0; 25.8% with SNB-19; 19.8% with SF-268; 12% in the experiment on HOP-92; 19.6% with SR; 28% in the experiment on CAKI-1. Also, the inhibition of growth at 10 µM was 29.2% with U-251; 39.3% in the experiment with SNB-75; 13.6% in the experiment with BT-549; 11.5% in the experiment on NCI/ADR-RES; 19.9% in the experiment with LOX IMVI; 24.6% in the experiment on MDA-MB-468. The inhibition of growth at 10 µM was determined as 26.6% with OVCAR-8; 16.7% with HL-60(TB); 12.8% in the experiment with MOLT-4; 21.4% in the experiment on K562; 18.4% with UACC-62; 37.6% in experiment [1].
In the case of `COC(=O)/C=C1\S/C(=N\N=C\c2ccc(OS(=O)(=O)C(F)(F)C(F)(F)C(F)(F)C(F)(F)C(F)(F)C(F)(F)C(F)(F)C(F)(F)F)cc2)N(c2ccccc2)C1=O`, the inhibition of growth at 10 µM in the experiment with SK-MEL-2 worked out at 16.9%; in the experiment on SF-295, 22%; in the experiment with SF-539 it was 12.1%; with MDA-MB-231, 15.2%; in the experiment on HOP-62, 27%; in the experiment on HCT-116 it was 10.5%. The inhibition of growth at 10 µM with CCRF-CEM was 22.1%; in the experiment with A498 it was 12.9%; in the experiment with MCF7 it was 11.2%; in the experiment with ACHN, 11.6%; with 786-0 it was 26.6%; in the experiment on SNB-19, 36.3%. Besides, the inhibition of growth at 10 µM in the experiment on SF-268 is 19.3%; in the experiment with HOP-92, 25.1%; in the experiment with CAKI-1 it was 20%; with U-251, 36.2%; in the experiment on SNB-75 it was 37.8%; in the experiment on RXF 393, 39.7%. In addition, the inhibition of growth at 10 µM in the experiment with NCI-H522 turned out to be 22.1%; in the experiment on SK-OV-3, 14.1%; with UACC-62 it was 13.5%; in experiment [1], 34.1%.

(Values after ChEMBL document CHEMBL5055672, “Design, Synthesis, Biological Evaluation, and Computational Studies of Novel Fluorinated Candidates as PI3K Inhibitors: Targeting Fluorophilic Binding Sites” (J Med Chem, 2021).)
